Results: patent US20050019847A1, “ISG15-conjugated proteins” (priority 2003, published 2005)
Peptide text beside a SMILES is read from it. * marks the point of attachment. Cbz = O=C(OCc1ccccc1)*

Tests used:
[1] = tested on: ISG15-conjugates; assay: Western blot of ISG15-conjugates in MEFs treated with proteasome inhibitor; assay type: cell-based, murine
Method: (§1) (A) UBP43^+/+ and UBP43^−/− MEFs were incubated with or without IFNβ for 18 hours and were treated with lactacystin at a final concentration of 5 μM for 3 hours. An equal volume of DMSO (vehicle) was added to control samples. Cell lysates (10 μg total protein) were resolved on 8-18% minigel and western blot was performed with rabbit anti-mouse ISG15. The membrane was stripped and reprobed with anti-Ub serum. (B) UBP43^+/+ (not treated with IFN) and UBP43^−/− (incubated with IFNβ for 18 hours) MEFs were treated with MG132 at a final concentration of 10 μM for 3 hours. An equal volume of DMSO (vehicle) was added to control samples. PLCγ1 was immunoprecipitated and immunocomplexes were resolved on 7% minigel. The membrane was probed with anti-ISG15 and, after stripping, was reprobed with anti-PLCγ1. Positions of unmodified PLCγ1 are shown with arrows and positions of conjugates are shown with asterisks. Cell lysates (10 μg total protein) were also resolved on an identical minigel to assess amount of ISG15- and Ub-conjugates. Western blot was performed with rabbit anti-mouse ISG15 and after stripping the membrane was reprobed with anti-Ub serum.
(§2) Wild type and UBP43^−/− murine embryonic fibroblasts (MEFs) were generated from a litter of embryos on embryonic day 12.5. Briefly, embryonic torsos were minced and trypsinized for 30 min at 37° C. […]

[2] = tested on: ubiquitinated proteins; assay: Western blot of ubiquitinated proteins in MEFs treated with proteasome inhibitor; assay type: cell-based, murine; details: UBP43−/− and UBP43+/+ MEFs, uninduced or IFNβ induced; lactacystin 5 μM for 3 hours
Method: as §1, §2

Compound	level of ISG15-conjugation ([1]; UBP43+/+ (no IFN) and UBP43−/− (IFNβ 18 hours) MEFs, MG132 10 μM for 3 hours)	amount of ISG15-conjugates, treated vs untreated samples ([1]; UBP43−/− and UBP43+/+ MEFs, uninduced or IFNβ induced, lactacystin 5 μM for 3 hours)	amount of ubiquitinated proteins [2]
CC(C)C[C@@H](C=O)NC(=O)[C@H](CC(C)C)NC(=O)[C@H](CC(C)C)NC(=O)OCc1ccccc1 [MG132] (Cbz-Leu-Leu-Leu-aldehyde)	do not affect		
CC(=O)N[C@@H](CSC(=O)[C@]1([C@@H](O)C(C)C)NC(=O)[C@H](C)[C@@H]1O)C(=O)O [lactacystin]		no difference	increase
